Laboratory results: US20240124444A1 (Celgene Corporation, priority 2020, published 2024)

Test system: C. parvum strain UGA1
Experiment: C. parvum growth inhibition assay (Nluc luminescence in HCT-8 cells)
Format: cell-based, Cryptosporidium parvum
Conditions: for EC50: C. parvum growth inhibition in HCT-8 cells, 48 hours, 6 concentrations 10-0.04 μM; for inhibition at 1 µM / inhibition at 10 µM: HCT-8; for inhibition at 1 µM: single point inhibition @ 1 uM, read-out: % inh @ 1 uM C. parvum; for inhibition at 10 µM: single point inhibition @ 10 uM, read-out: % inh @ 10 uM C. parvum
Description: C. parvum GROWTH INHIBITION ASSAYS
C. parvum growth inhibition was performed as described in Hulverson M A, Vinayak S, Choi R, Schaefer D A, Castellanos-Gonzalez A, Vidadala R S R, Brooks C F, Herbert G T, Betzer D P, Whitman G R, Sparks H N, Arnold S L M, Rivas K L, Barrett L K, White A C Jr, Maly D J, Riggs M W, Striepen B, Van Voorhis W C, Ojo K K. Bumped-Kinase Inhibitors for Cryptosporidiosis Therapy. J Infect Dis. 2017 Apr. 15; 215(8):1275-1284.
C. parvum strain UGA1 […] (ATCC, Manassas, VA) were prepared as described below. HCT-8 cells were inoculated onto 96-well plates were grown for 48 hours to 90%-100% confluence. C. parvum oocysts were then incubated for 10 minutes in 10% bleach at room temperature and washed with Dulbecco's phosphate-buffered saline. One thousand oocysts per well were applied to plates with Roswell Park Memorial Institute 1640 (RPMI) medium supplemented with 10% horse serum and 1% penicillin/streptomycin. Compounds of Formula (I), Formula (II), and Formula (III) were added to the plates at different concentrations and the plates were incubated for 48 hours. Following the incubation, the monolayers were lysed for 1 hour before a luciferase reagent was added, and relative luminescence units were determined.
For certain compounds of Formula I, Formula II, and Formula III, EC50 values were calculated using curves calculated from Prism after analysis of C. parvum growth inhibition at 6 different concentrations: 10, 3.33, 1.11, 0.37, 0.12, and 0.04 μM. […] For certain compounds of Formula I, Formula II, and Formula III, single point inhibition values of 0-33% (activity level D), between 33% and 66% (activity level E), and between 67% and 100% (activity level F) are also shown in Table 1 below.

[1] = Cryptosporidium parvum, HCT-8, 48 h

FC(F)(F)CNc1nccc(-c2cc3cnc(NC4CCOC4)cc3[nH]2)n1 (stereo in doubt) [Example 366, (R)-N-(tetrahydrofuran-3-yl)-2-(2-(2,2,2-trifluoroethylamino)pyrimidin-4-yl)-1H-pyrrolo[3,2-c]pyridin-6-amine]
EC50 [1]: < 0.5 µM

Cc1cc(-c2[nH]c3cc(NC4CCOC4)ncc3c2C)ccn1 (stereo in doubt) [Example 367, (S)-3-methyl-2-(2-methylpyridin-4-yl)-N-(tetrahydrofuran-3-yl)-1H-pyrrolo[3,2-c]pyridin-6-amine]
EC50 [1]: > 1 µM

Cc1cc(-c2[nH]c3cc(NC4CCOC4)ncc3c2C)ccn1 (stereo in doubt) [Example 368, (R)-3-methyl-2-(2-methylpyridin-4-yl)-N-(tetrahydrofuran-3-yl)-1H-pyrrolo[3,2-c]pyridin-6-amine]
EC50 [1]: > 1 µM

FC(F)(F)CNc1nccc(-c2cc3cnc(NC4CCOC4)cc3[nH]2)n1 (stereo in doubt) [Example 374, (S)-N-(tetrahydrofuran-3-yl)-2-(2-(2,2,2-trifluoroethylamino)pyrimidin-4-yl)-1H-pyrrolo[3,2-c]pyridin-6-amine]
EC50 [1]: 0.5 to 1 µM

Cn1c(-c2ccnc(NCC(F)(F)F)n2)cc2cnc(NC3CCCOC3)cc21 (stereo in doubt) [Example 379, (S)-1-methyl-N-(tetrahydro-2H-pyran-3-yl)-2-(2-(2,2,2-trifluoroethylamino)pyrimidin-4-yl)-1H-pyrrolo[3,2-c]pyridin-6-amine]
EC50 [1]: > 1 µM

Cn1c(-c2ccnc(NCC(F)(F)F)n2)cc2cnc(NC3CCCOC3)cc21 (stereo in doubt) [Example 386, (R)-1-methyl-N-(tetrahydro-2H-pyran-3-yl)-2-(2-(2,2,2-trifluoroethyl)amino)pyrimidin-4-yl)-1H-pyrrolo[3,2-c]pyridin-6-amine]
EC50 [1]: > 1 µM

Cc1cc(-c2cc3cnc(N[C@@H]4CCOC4)cc3[nH]2)ccn1 [Example 13, (R)-2-(2-Methylpyridin-4-yl)-N-(tetrahydrofuran-3-yl)-1H-pyrrolo[3,2-c]pyridin-6-amine]
EC50: 0.5 to 1 µM
inhibition at 1 µM (Cryptosporidium parvum): 33 to 66%
inhibition at 10 µM (Cryptosporidium parvum): 67 to 100%

Cc1cc(-c2cc3cnc(N[C@H]4CCCOC4)cc3[nH]2)ccn1 [Example 22, (S)-2-(2-Methylpyridin-4-yl)-N-(tetrahydro-2H-pyran-3-yl)-1H-pyrrolo[3,2-c]pyridin-6-amine]
EC50 [1]: > 1 µM
inhibition at 1 µM (Cryptosporidium parvum): 33 to 66%
inhibition at 10 µM (Cryptosporidium parvum): 67 to 100%

c1nc(NC2CCOCC2)cc2[nH]c(C3CCCCC3)cc12 [Example 26, 2-Cyclohexyl-N-(tetrahydro-2H-pyran-4-yl)-1H-pyrrolo[3,2-c]pyridin-6-amine]
EC50 [1]: > 1 µM

CN(CC(F)(F)F)c1nccc(-c2cc3cnc(NC4CCOCC4)cc3n2C)n1 [Example 30, 1-Methyl-2-(2-(methyl(2,2,2-trifluoroethyl)amino)pyrimidin-4-yl)-N-(tetrahydro-2h-pyran-4-yl)-1H-pyrrolo[3,2-c]pyridin-6-amine]
EC50 [1]: > 1 µM
inhibition at 1 µM (Cryptosporidium parvum): 0 to 33%

Cc1cc(-c2cc3cnc(NC4CCOCC4)cc3[nH]2)ncn1 [Example 38]
EC50 [1]: > 1 µM

CN(CC(F)(F)F)c1cc(-c2cc3cnc(NC4CCOCC4)cc3[nH]2)ncn1 [Example 44, 2-(6-(Methyl(2,2,2-trifluoroethyl)amino)pyrimidin-4-yl)-N-(tetrahydro-2H-pyran-4-yl)-1H-pyrrolo[3,2-c]pyridin-6-amine]
inhibition at 1 µM (Cryptosporidium parvum): 0 to 33%
inhibition at 10 µM (Cryptosporidium parvum): 67 to 100%

O=C(Nc1cc2[nH]c(C3CC(F)(F)C3)cc2cn1)C1CC1 [Example 53, N-(2-(3,3-difluorocyclobutyl)-1H-pyrrolo[3,2-c]pyridin-6-yl)cyclopropanecarboxamide]
EC50 [1]: > 1 µM

N#Cc1cc(-c2cc3cnc(Nc4cccc(C5CCOCC5)c4)cc3[nH]2)ccn1 [Example 54, 4-(6-(3-(tetrahydro-2H-pyran-4-yl)phenylamino)-1H-pyrrolo[3,2-c]pyridin-2-yl)picolinonitrile]
EC50 [1]: > 1 µM
inhibition at 1 µM (Cryptosporidium parvum): 0 to 33%
inhibition at 10 µM (Cryptosporidium parvum): 67 to 100%

Cc1cc(-c2cc3cnc(NC(=O)C4CC4)cc3n2CCO)ncn1 [Example 55, N-(1-(2-hydroxyethyl)-2-(6-methylpyrimidin-4-yl)-1H-pyrrolo[3,2-c]pyridin-6-yl)cyclopropanecarboxamide]
EC50 [1]: > 1 µM

Cn1cc(Nc2cc3[nH]c(-c4ccnc(C#N)c4)cc3cn2)cn1 [Example 56, 4-(6-(1-methyl-1H-pyrazol-4-ylamino)-1H-pyrrolo[3,2-c]pyridin-2-yl)picolinonitrile]
EC50 [1]: > 1 µM
inhibition at 1 µM (Cryptosporidium parvum): 0 to 33%
inhibition at 10 µM (Cryptosporidium parvum): 67 to 100%

Cn1cnc(-c2cc3cnc(NC(=O)C4CC4)cc3n2C)n1 [Example 57, N-(1-methyl-2-(1-methyl-1H-1,2,4-triazol-3-yl)-1H-pyrrolo[3,2-c]pyridin-6-yl)cyclopropanecarboxamide]
EC50 [1]: > 1 µM

CCOc1nccc(-c2cc3cnc(NC(=O)C4C5CCCC54)cc3[nH]2)n1 (centres unmarked) [Example 58, N-(2-(2-ethoxypyrimidin-4-yl)-1H-pyrrolo[3,2-c]pyridin-6-yl)bicyclo[3.1.0]hexane-6-carboxamide]
EC50 [1]: > 1 µM
inhibition at 1 µM (Cryptosporidium parvum): 0 to 33%
inhibition at 10 µM (Cryptosporidium parvum): 67 to 100%

Cc1cc(-c2cc3cnc(NC4CCOCC4)cc3n2C)ccn1 [Example 59, 1-methyl-2-(2-methylpyridin-4-yl)-N-(tetrahydro-2H-pyran-4-yl)-1H-pyrrolo[3,2-c]pyridin-6-amine]
EC50 [1]: > 1 µM

Cn1cnc(-c2cc3cnc(NC(=O)C4CC4)cc3[nH]2)c1 [Example 60, N-(2-(1-methyl-1H-imidazol-4-yl)-1H-pyrrolo[3,2-c]pyridin-6-yl)cyclopropanecarboxamide]
EC50 [1]: > 1 µM

O=C(Nc1cc2[nH]c(-c3cnc(C4CC4)o3)cc2cn1)C1CC1 [Example 61, N-(2-(2-cyclopropyloxazol-5-yl)-1H-pyrrolo[3,2-c]pyridin-6-yl)cyclopropanecarboxamide]
EC50 [1]: > 1 µM

COc1nccc(-c2cc3cnc(NC4CCOCC4)cc3[nH]2)n1 [Example 62, 2-(2-methoxypyrimidin-4-yl)-N-(tetrahydro-2H-pyran-4-yl)-1H-pyrrolo[3,2-c]pyridin-6-amine]
EC50 [1]: > 1 µM

COc1nccc(-c2cc3cnc(NC(=O)[C@H]4C[C@H](O)C4)cc3[nH]2)n1 [Example 63, (1r,3r)-3-hydroxy-N-(2-(2-methoxypyrimidin-4-yl)-1H-pyrrolo[3,2-c]pyridin-6-yl)cyclobutanecarboxamide]
EC50 [1]: > 1 µM
inhibition at 1 µM (Cryptosporidium parvum): 0 to 33%
inhibition at 10 µM (Cryptosporidium parvum): 67 to 100%

Cn1cc(C(=O)Nc2cc3[nH]c(-c4cnco4)cc3cn2)cn1 [Example 64, 1-methyl-N-(2-(oxazol-5-yl)-1H-pyrrolo[3,2-c]pyridin-6-yl)-1H-pyrazole-4-carboxamide]
EC50 [1]: > 1 µM
inhibition at 1 µM (Cryptosporidium parvum): 0 to 33%
inhibition at 10 µM (Cryptosporidium parvum): 33 to 66%

Cn1cnc(-c2cc3cnc(NC(=O)C4CC4)cc3[nH]2)n1 [Example 65, N-(2-(1-methyl-1H-1,2,4-triazol-3-yl)-1H-pyrrolo[3,2-c]pyridin-6-yl)cyclopropanecarboxamide]
EC50 [1]: > 1 µM

Cc1cc(-c2cc3cnc(Nc4cccc(-c5nc[nH]n5)c4)cc3[nH]2)ccn1 [Example 66, N-(3-(1H-1,2,4-triazol-3-yl)phenyl)-2-(2-methylpyridin-4-yl)-1H-pyrrolo[3,2-c]pyridin-6-amine]
EC50 [1]: > 1 µM
inhibition at 1 µM (Cryptosporidium parvum): 67 to 100%
inhibition at 10 µM (Cryptosporidium parvum): 67 to 100%

Cc1cc(-c2cc3cnc(NCC4CC4)cc3[nH]2)ccn1 [Example 67, N-(cyclopropylmethyl)-2-(2-methylpyridin-4-yl)-1H-pyrrolo[3,2-c]pyridin-6-amine]
EC50 [1]: > 1 µM

O=C(Nc1cc2[nH]c(-c3ccncc3)cc2cn1)C1CCOCC1 [Example 68, N-(2-(pyridin-4-yl)-1H-pyrrolo[3,2-c]pyridin-6-yl)tetrahydro-2H-pyran-4-carboxamide]
EC50 [1]: > 1 µM
inhibition at 1 µM (Cryptosporidium parvum): 0 to 33%
inhibition at 10 µM (Cryptosporidium parvum): 67 to 100%

Cc1cccc(-c2cc3cnc(NC(=O)C4CC4)cc3n2C)n1 [Example 69, N-(1-methyl-2-(6-methylpyridin-2-yl)-1H-pyrrolo[3,2-c]pyridin-6-yl)cyclopropanecarboxamide]
EC50 [1]: > 1 µM

Cn1cc(-c2cc3cnc(Nc4ccccc4)cc3n2C)cn1 [Example 70, 1-methyl-2-(1-methyl-1H-pyrazol-4-yl)-N-phenyl-1H-pyrrolo[3,2-c]pyridin-6-amine]
EC50 [1]: > 1 µM
inhibition at 1 µM (Cryptosporidium parvum): 33 to 66%
inhibition at 10 µM (Cryptosporidium parvum): 67 to 100%

FC(F)(F)c1cc2cnc(NC3CCOCC3)cc2[nH]1 [Example 71, N-(tetrahydro-2H-pyran-4-yl)-2-(trifluoromethyl)-1H-pyrrolo[3,2-c]pyridin-6-amine]
EC50 [1]: > 1 µM
